Measurements from ChEMBL document CHEMBL5370601, “Synthesis and Binding Mode Predictions of Novel Siglec-7 Ligands” (J Med Chem, 2023).

Experiments:
[1] = molecular target: Sialic acid-binding Ig-like lectin 7 (Homo sapiens) (UniProt Q9Y286); assay: Potency index, ratio of test compound IC50 to (2R,4S,5R,6R)-2-(3-(4-([1,1'-biphenyl]-4-yl)-1H-1,2,3-triazol-1-yl)propoxy)-5-acetamido-4-hydroxy-6-((1R,2R)-1,2,3-trihydroxypropyl)tetrahydro-2H-pyran-2-carboxylate Sodium IC50 for competitive inhibition of IgG1-fused human Siglec-7 Fc domain preincubated for 10 mins followed by addition of red blood cells incubated for 20 mins on ice by sandwich FACS analysis; conditions: time 30.0 min
Chain of Sialic acid-binding Ig-like lectin 7 (Homo sapiens) (Q9Y286 whole entry, the tested form may be a part): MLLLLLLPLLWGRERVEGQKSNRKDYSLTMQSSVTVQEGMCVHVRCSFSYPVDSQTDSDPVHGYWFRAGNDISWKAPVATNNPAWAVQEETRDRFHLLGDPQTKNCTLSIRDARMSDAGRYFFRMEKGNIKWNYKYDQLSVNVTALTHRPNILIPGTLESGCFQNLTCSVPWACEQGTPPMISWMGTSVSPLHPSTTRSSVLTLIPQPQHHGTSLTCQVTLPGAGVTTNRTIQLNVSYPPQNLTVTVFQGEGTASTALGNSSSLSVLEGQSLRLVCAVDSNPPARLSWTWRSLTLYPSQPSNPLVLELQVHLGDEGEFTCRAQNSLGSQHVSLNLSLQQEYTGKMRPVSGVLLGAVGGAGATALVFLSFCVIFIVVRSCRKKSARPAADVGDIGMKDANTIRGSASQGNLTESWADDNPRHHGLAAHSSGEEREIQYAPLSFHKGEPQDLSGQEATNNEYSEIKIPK

[2] = Solubility in water; format: physicochemical; conditions: buffer
[3] = Solubility in PBS; format: physicochemical; conditions: buffer
[4] = Solubility in methanol; format: physicochemical
[5] = molecular target: Sialic acid-binding Ig-like lectin 7 (Homo sapiens) (UniProt Q9Y286); assay: Potency index, ratio of test compound IC50 to (2R,4S,5R,6R)-2-(3-(4-([1,1'-biphenyl]-4-yl)-1H-1,2,3-triazol-1-yl)propoxy)-5-acetamido-6-((1R,2R)-1,2-dihydroxy-3-(methylsulfonamido)propyl)-4-hydroxytetrahydro-2H-pyran-2-carboxylate Sodium IC50 for competitive inhibition of IgG1-fused human Siglec-7 Fc domain preincubated for 10 mins followed by addition of red blood cells incubated for 20 mins on ice by sandwich FACS analysis; conditions: time 30.0 min

Compound	Ratio IC50 [1]	Ratio IC50 [5]	other results
O=C(COCc1ccccc1)N[C@H]1[C@H]([C@H](O)[C@H](O)CO)O[C@@](OCCCn2cc(-c3ccc(-c4ccccc4)cc3)nn2)(C(=O)[O-])C[C@@H]1O.[Na+]			solubility [2]: Insoluble; solubility [3]: Insoluble
N[C@H]1[C@H]([C@H](O)[C@H](O)CO)O[C@@](OCCCn2cc(-c3ccc(-c4ccccc4)cc3)nn2)(C(=O)O)C[C@@H]1O			solubility [4]: Insoluble; solubility [2]: Insoluble
CS(=O)(=O)NC[C@@H](O)[C@@H](O)[C@@H]1O[C@@](OCCCn2cc(-c3ccc(-c4ccccc4)cc3)nn2)(C(=O)O)C[C@H](O)[C@H]1NC(=O)COCc1ccccc1		0.3	
O=C(CF)N[C@H]1[C@H]([C@H](O)[C@H](O)CO)O[C@@](OCCCn2cc(-c3ccc(-c4ccccc4)cc3)nn2)(C(=O)O)C[C@@H]1O	1.6		
CS(=O)(=O)NC[C@@H](O)[C@@H](O)[C@@H]1O[C@@](OCCCn2cc(-c3ccc(-c4ccccc4)cc3)nn2)(C(=O)O)C[C@H](O)[C@H]1NC(=O)CF		1.5	

Second part, led by results:

Ratio IC50 [1]	Ratio IC50 [5]	Compound	other results
1.5		O=C(CO)N[C@H]1[C@H]([C@H](O)[C@H](O)CO)O[C@@](OCCCn2cc(-c3ccc(-c4ccccc4)cc3)nn2)(C(=O)O)C[C@@H]1O	
0.75		CC(=O)N[C@H]1[C@H]([C@H](O)[C@H](O)CC(=O)O)O[C@@](OCCCn2cc(-c3ccc(-c4ccccc4)cc3)nn2)(C(=O)O)C[C@@H]1O	
< 0.5		CC(=O)N[C@H]1[C@H]([C@H](O)[C@H](O)CCNC(=O)Cc2ccccc2)O[C@@](OCCCn2cc(-c3ccc(-c4ccccc4)cc3)nn2)(C(=O)O)C[C@@H]1O	
< 0.5		CCC(=O)NCC[C@@H](O)[C@@H](O)[C@@H]1O[C@@](OCCCn2cc(-c3ccc(-c4ccccc4)cc3)nn2)(C(=O)O)C[C@H](O)[C@H]1NC(C)=O	
	1.2	CS(=O)(=O)NC[C@@H](O)[C@@H](O)[C@@H]1O[C@@](OCCCn2cc(-c3ccc(-c4ccccc4)cc3)nn2)(C(=O)O)C[C@H](O)[C@H]1NC(=O)CO	
